The structures appear in SMILES notation. Read-outs that look alike come from different tables or passages of the source.

Data set [1] deals with stable HCV 1b RLuc replicon cells (dicistronic genotype 1b Con1 replicon). The data set is described as follows: Renilla luciferase HCV replicon reporter assay, genotype 1b. It is filed as cell-based. The procedure, abridged:
(§1)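 72 h compound exposure (3-fold dilutions from 10 mM DMSO stocks) of replicon cells: stable dicistronic RLuc 1a H77, 1b Con1, 2a JFH-1 (NS5A L31); J6-NS5A chimera in JFH-1 (M31), transient in Huh-Lunet or stable. Renilla luciferase read-out, non-linear regression → EC50. DMSO negative control.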
A general note: In antiviral work, replicon cells carry a viral genome segment that copies itself.

Data set [2] deals with stable HCV 1a RLuc replicon cells (dicistronic genotype 1a H77 replicon). Nature of the data set: Renilla luciferase HCV replicon reporter assay, genotype 1a. The conditions noted are these: stable 1a H77 RLuc replicon cells. The format is cell-based. The procedure, abridged:
as §1

The test system of data set [3] is Q30R in genotype 1a NS5A (1a Pi-Rluc replicon, Huh-7-derived cured-51 cells). The data set is described as follows: Replicon assay against resistance mutant 1a Q30R. The format is cell-based, HCV. The gist of the method: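 Q30R introduced by site-directed mutagenesis into the 1a Pi-RLuc replicon; replicon RNA transiently transfected into cured-51 cells. Cells treated with 3-fold serially diluted compound for 72 h, then lysed and Renilla luciferase measured; EC50 by non-linear regression.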

For data set [4], the system named is stable HCV 2a JFH-1 Rluc replicon cells (L31 present in NS5A). Nature of the data set: Renilla luciferase HCV replicon reporter assay, genotype 2a JFH-1. It is filed as cell-based. The procedure, abridged: as §1
Data set [5] has as its system NS5A chimeric genotype 2a JFH-1 replicon with genotype 2a J6 strain NS5A gene (M31 present). Nature of the data set: Replicon assay, genotype 2a J6 NS5A chimera. It is filed as cell-based, HCV. The gist of the method: (§2)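 EC50 was fitted by non-linear regression to Renilla luciferase signal after 72 h of exposure to 3-fold serially diluted compound (10 mM DMSO stocks). Controls were DMSO (none) and ITMN-191 above 100×EC50 (full). Chimeric 2a replicons were used either stable or transiently transfected into Huh-Lunet cells.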

The subject of data set [6] is NS5A chimeric genotype 2a JFH-1 replicon with genotype 2b MD2b-1 strain NS5A gene (M31 present). The data set is described as follows: Replicon assay, genotype 2b NS5A chimera. It is filed as cell-based, HCV. The procedure, abridged: as §2
The subject of data set [7] is NS5A chimeric genotype 1b Con1 replicon with genotype 3a S52 strain NS5A gene. The data set is described as follows: Replicon assay, genotype 3a NS5A chimera. It is filed as cell-based, HCV.
The subject of data set [8] is NS5A chimeric genotype 1b Con1 replicon with genotype 4a ED43 strain NS5A gene. Nature of the data set: Replicon assay, genotype 4a NS5A chimera. It is filed as cell-based, HCV.
The nature of data set [9]: IV and PO single dose pharmacokinetic studies in SD rats. The format is in vivo, male Sprague-Dawley (SD) rats. The conditions noted are these: male SD rats, PO 2 mg/kg vs IV infusion 1 mg/kg; for bioavailability: Sprague-Dawley, rat, plasma, read-out: Rat % F; for Rat % F: oral bioavailability. The gist of the method:
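Fasted male Sprague-Dawley rats (250-300g, n=3/group) were given 1 mg/kg IV as a 30-min jugular infusion (5% ethanol/35% PEG 400/water pH 2.0) or 2 mg/kg by oral gavage (5% ethanol/55% PEG 400/citrate pH 2.2). Plasma was sampled to 24 h and analysed by LC/MS/MS. Non-compartmental parameters were derived, and %F was calculated from the oral/IV AUC ratio.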

The mark [10] stands for this setting: Hepatitis C virus, 72 h, stable 1b Con1 RLuc replicon cells, 72 hours, read-out: 1b.
Where [11] appears, read: Hepatitis C virus, 72 h, activity range.
[12] abbreviates: Hepatitis C virus, read-out: 1a Q30R.
[13] abbreviates: Hepatitis C virus, read-out: 1a Q30R (nM).
Setting [14] is: Hepatitis C virus, read-out: 2a JFH (nM), genotype 2a JFH-1 replicon (L31 in NS5A), stable cells.
Setting [15] is: Hepatitis C virus, read-out: 2a JFH, stable 2a JFH-1 Rluc replicon cells, L31 in NS5A, activity range.
[16] abbreviates: Hepatitis C virus, read-out: 2a J6 (t) (nM), genotype 2a J6 NS5A chimeric replicon (M31), transiently transfected (t) into Huh-Lunet cells.
Setting [17] is: Hepatitis C virus, read-out: 2a J6 (t), transiently transfected (t) into Huh-Lunet cells, activity range.
Where [18] appears, read: Hepatitis C virus, 2BS, read-out: 2b (s), stably replicating replicon cells (s), activity range.
Where [19] appears, read: Hepatitis C virus, read-out: 2b (s) (nM), genotype 2b MD2b-1 NS5A chimeric replicon (M31), stably replicating replicon cells (s).
The mark [20] stands for this setting: Hepatitis C virus, read-out: 2b (t) (nM), genotype 2b MD2b-1 NS5A chimeric replicon (M31), transiently transfected (t).
[21] abbreviates: Hepatitis C virus, read-out: 2b (t), transiently transfected (t) into Huh-Lunet cells, activity range.
Setting [22] is: Hepatitis C virus, read-out: 3a (s) (nM), genotype 3a NS5A chimeric replicon, stable replicon cells (s).
The mark [23] stands for this setting: Hepatitis C virus, read-out: 3a (s), (s), activity range.
Setting [24] is: Hepatitis C virus, read-out: 4a (s) (nM), genotype 4a NS5A chimeric replicon, stable replicon cells (s).
[25] abbreviates: Hepatitis C virus, read-out: 4a (s), (s), activity range.

For `COC(=O)N[C@H](C(=O)N1[C@@H](C)CC[C@H]1c1ncc(-c2ccc3c(c2)COc2cc4c(ccc5nc([C@@H]6CC[C@H](C)N6C(=O)[C@@H](NC(=O)OC)[C@@H](C)OC)[nH]c54)cc2-3)[nH]1)C(C)C` [FA, Methyl [(2S)-1-{(2S,5S)-2-[5-(2-{(2S,5S)-1-[N-(methoxycarbonyl)-O-methyl-L-threonyl]-5-methylpyrrolidin-2-yl}-1,11-dihydroisochromeno[4′,3′:6,7]naphtho[1,2-d]imidazol-9-yl)-1H-imidazol-2-yl]-5-methylpyrrolidin-1-yl}-3-methyl-1-oxobutan-2-yl]carbamate], the EC50 was 0.014 nM in [1] (setting [10]); 0.011 nM in data set [2] (Hepatitis C virus, 72 h); below 0.1 nM in data set [2] (setting [11]); below 0.1 nM in data set [3] (setting [12]); 0.046 nM in data set [3] (setting [13]); 0.014 nM in data set [4] (setting [14]). Further, the EC50 was below 0.1 nM in data set [4] (setting [15]); 0.033 nM in data set [5] (setting [16]); below 0.1 nM in [5] (setting [17]); 0.1 to 0.999 nM in data set [6] (setting [18]); 0.13 nM in data set [6] (setting [19]); 0.036 nM in data set [6] (setting [20]). Moreover, the EC50 in data set [6] (setting [21]) is below 0.1 nM; in data set [7] (setting [22]) it was 0.034 nM; in data set [7] (setting [23]), below 0.1 nM; in data set [8] (setting [24]) it was 0.011 nM; in data set [8] (setting [25]), below 0.1 nM. For the same compound, the bioavailability in data set [9] is 13.5%.
As for `COC(=O)N[C@H](C(=O)N1[C@@H](C)CC[C@H]1c1ncc(-c2ccc3c(c2)COc2cc4c(ccc5nc([C@@H]6CC[C@H](C)N6C(=O)[C@@H](NC(=O)OC)[C@@H](C)OC)[nH]c54)cc2-3)[nH]1)C(C)C` [DX, Methyl {(2S)-1-[(2S,4S)-2-(5-{2-[(2S,5S)-1-{(2S,3R)-3-methoxy-2-[(methoxycarbonyl)amino]butanoyl}-5-methylpyrrolidin-2-yl]-1,11-dihydroisochromeno[4′,3′:6,7]naphtho[1,2-d]imidazol-9-yl}-1H-imidazol-2-yl)-5-methylpyrrolidin-1-yl]-3-methyl-1-oxobutan-2-yl}carbamate], the EC50 in data set [1] (stable 1b Con1 RLuc replicon cells, 72 hours, read-out: 1b) is 0.031 nM; in data set [2] (72 hours) it was 0.021 nM; in data set [2] (72 hours, activity range), below 0.1 nM; in data set [3] (Q30R mutant replicon transiently transfected into Huh-7-derived cured-51 cells, activity range, read-out: 1a Q30R), 0.1 to 0.999 nM; in [3] (Q30R mutant replicon transiently transfected into Huh-7-derived cured-51 cells, read-out: 1a Q30R) it was 0.138 nM; in data set [4] (genotype 2a JFH-1 replicon (L31 in NS5A), stable cells, read-out: 2a JFH), 0.019 nM. The EC50 in [4] (stable 2a JFH-1 Rluc replicon cells, L31 in NS5A, activity range, read-out: 2a JFH) is below 0.1 nM; in data set [5] (genotype 2a J6 NS5A chimeric replicon (M31), transiently transfected (t) into Huh-Lunet cells, read-out: 2a J6 (t)), 0.109 nM; in data set [5] (transiently transfected (t) into Huh-Lunet cells, activity range, read-out: 2a J6 (t)), 0.1 to 0.999 nM; in [6] (genotype 2b MD2b-1 NS5A chimeric replicon (M31), stably replicating replicon cells (s), read-out: 2b (s)), 0.201 nM; in data set [6] (genotype 2b MD2b-1 NS5A chimeric replicon (M31), transiently transfected (t), read-out: 2b (t)) it was 0.06 nM; in data set [6] (stably replicating replicon cells (s), activity range, read-out: 2b (s)), 0.1 to 0.999 nM. For the same compound, the EC50 in [6] (transiently transfected (t) into Huh-Lunet cells, activity range, read-out: 2b (t)) was below 0.1 nM; in data set [7] ((s), activity range, read-out: 3a (s)) it was below 0.1 nM; in data set [7] (genotype 3a NS5A chimeric replicon, stable replicon cells (s), read-out: 3a (s)), 0.048 nM; in data set [8] ((s), activity range, read-out: 4a (s)), below 0.1 nM; in data set [8] (genotype 4a NS5A chimeric replicon, stable replicon cells (s), read-out: 4a (s)), 0.018 nM. Besides, the “Rat % F” value in data set [9] is 21.3%.
On to `COC(=O)N[C@H](C(=O)N1[C@@H](C)CC[C@H]1c1ncc(-c2ccc3c(c2)COc2cc4c(ccc5nc([C@@H]6CC[C@H](C)N6C(=O)[C@@H](NC(=O)OC)C6CCOCC6)[nH]c54)cc2-3)[nH]1)C(C)C` [FC, Methyl [(1 S)-2-[(2S,5S)-2-(9-{2-[(2S,5S)-1-{(2S)-2-[(methoxycarbonyl)amino]-3-methylbutanoyl}-5-methylpyrrolidin-2-yl]-1H-imidazol-5-yl}-1,11-dihydroisochromeno[4′,3′:6,7]naphtho[1,2-d]imidazol-2-yl)-5-methylpyrrolidin-1-yl]-2-oxo-1-(tetrahydro-2H-pyran-4-yl)ethyl]carbamate], for which the EC50 was 0.021 nM in data set [1] (Hepatitis C virus, 72 h, read-out: 1b (nM), stable 1b Con1 RLuc replicon cells, 72 hours); 0.014 nM in data set [2] (Hepatitis C virus, 72 h); below 0.1 nM in [2] (setting [11]); below 0.1 nM in [3] (setting [12]); 0.031 nM in data set [3] (setting [13]); 0.011 nM in data set [4] (setting [14]). For the same compound, the EC50 in data set [4] (setting [15]) is below 0.1 nM; in data set [5] (setting [16]), 0.015 nM; in data set [5] (setting [17]), below 0.1 nM; in data set [6] (setting [18]), below 0.1 nM; in data set [6] (setting [19]) it was 0.048 nM; in data set [6] (setting [20]), 0.024 nM. Further, the EC50 in data set [6] (setting [21]) is below 0.1 nM; in [7] (setting [22]), 0.031 nM; in [7] (setting [23]), below 0.1 nM; in data set [8] (setting [24]), 0.011 nM; in data set [8] (setting [25]) it was below 0.1 nM. For the same compound, the “Rat % F” value in data set [9] is given as 0%.
For `CC[C@H]1CC[C@@H](c2ncc(-c3ccc4c(c3)COc3cc5c(ccc6nc([C@@H]7CC[C@H](C)N7C(=O)[C@@H](NC(=O)OC)C(C)C)[nH]c65)cc3-4)[nH]2)N1C(=O)[C@@H](NC(=O)OC)C1CCOCC1` [HQ], the EC50 in [1] (setting [10]) was 0.027 nM; in data set [2] (Hepatitis C virus, 72 h) it was 0.022 nM; in data set [2] (setting [11]) it was below 0.1 nM; in data set [3] (setting [12]) it was below 0.1 nM; in data set [3] (setting [13]), 0.031 nM; in data set [4] (setting [14]), 0.024 nM. Also, the EC50 in data set [4] (setting [15]) is below 0.1 nM; in data set [5] (setting [16]) it was 0.088 nM; in data set [5] (setting [17]), below 0.1 nM; in data set [6] (setting [18]) it was 0.1 to 0.999 nM; in data set [6] (setting [19]), 0.233 nM; in data set [6] (setting [20]), 0.079 nM. Besides, the EC50 in data set [6] (setting [21]) was below 0.1 nM; in data set [7] (setting [22]) it was 0.076 nM; in data set [7] (setting [23]), below 0.1 nM; in data set [7] (Hepatitis C virus, read-out: 3a (t) (nM), genotype 3a NS5A chimeric replicon, transiently transfected (t)), 0.049 nM; in data set [7] (Hepatitis C virus, read-out: 3a (t), transiently transfected (t) into Huh-Lunet cells, activity range), below 0.1 nM; in data set [8] (setting [24]), 0.02 nM. Also, in data set [8] (setting [25]), the EC50 is below 0.1 nM. For the same compound, the bioavailability in data set [9] amounted to 34.3%.

Values taken from patent US10800789B2, “Antiviral compounds” (Gilead Pharmasset LLC, priority 2012, dated 2020).
